Source: patent US20070178152A1, “Carboxyalkylcellulose esters for administration of poorly soluble pharmaceutically active agents” (priority 2005, published 2007)
Several values for one entry are separate records, joined by “and”; a condition that tells them apart may be missing. Identical values can stand only once.

Legend:
[1] = Determination of % crystallinity by X-ray; assay type: physicochemical
Description: Determination of % Crystallinity by X-ray.
All samples were run on a Scintag PAD V diffractometer using Cu K-alpha X-ray.
For each polymer or drug used in this study a neat sample was obtained. A known weight of each species was mixed with a know weight of corundum, Al2O3, diffraction standard. Each mixture was pelletized with a hydraulic press and the XRD pattern of the pellet was measured from 5 to 45 degree scattering angle. A diffraction response factor, R, was calculated for each species according to: R=wc/ws*ls/lc where wc id the weight fraction of corundum, ws is the weight fraction of the species of interest, lc is the net intensity of the major diffraction line of corrundum and is the net intensity of the major diffraction line of the drug or in the case of the polymers, the net intensity of the maximum of the amorphous scattering curve.
Samples were pelletized with a hydraulic press and the XRD pattern of the pellet was measured from 5 to 45 degree scattering angle. The net intensity of the maximum of the amorphous scatter from the polymer, lp, and the net intensity of the major diffraction line of the drug, ld, were determined from the resulting scattering curve. The wt % crystalline drug was calculated from: % crystalline drug=(ld/Rd)/(ld/Rd+lp/Rp)×100 where Rd is the response factor for the drug and Rp is the response factor for the polymer.

[2] = Dissolution of carbamazepine and carbamazepine solid dispersions in SIFsp, pH 6.8; assay type: physicochemical; conditions: for % Drug Released / Total Drug Released: SIFsp pH 6.8, gelatin capsule; for Average % Released: carbamazepine
Description: All dissolution studies were performed on a Varian VK7025 Dissolution Apparatus equipped with a Varian VK8000 Fraction Collector
HPLC Methods for Evaluating Dissolution Aliquots:
Determination of Weight % Phenytoin, Carbamazepine, Glyburide, or Griseofulvin.
Mobile Phase: 55% acetonitrile/45% ammonium acetate buffer (2.6 g NH4OAc/L H2O with pH adjusted to pH˜5.25 with glacial acetic acid)
Column: Agilent Eclipse XDB-C8, 4.6 mm×150 mm×5 μm
Detection: UV 254 nm (UV 214 nm can also be used for phenytoin or carbamazepine, UV 291 nm can also be used for griseofulvin); typically five signals were selected from UV 214 nm, 222 nm, 254 nm, 287 nm, 291 nm, and/or 325 nm were collected for each sample.
Simulated Intestinal Fluid, without pancreatin, pH 6.8 (SIFsp, pH 6.8)—Added monobasic potassium phosphate (KH2PO4, 34 g) to a 4000-mL beaker. Added deionized/polished water (2000 mL) and mixed using a magnetic stir bar until the KH2PO4 is completely dissolved. Added 0.2 N sodium hydroxide (NaOH, 590 mL) and stirred. The pH was adjusted to pH 6.8±0.1 using 0.2 N NaOH. The sample was diluted with deionized/polished water to a final volume of 5000 mL.
The SIFsp media was heated to ˜45° C. in four 2000-mL Kimax bottles in an oven. The sample was degassed according to USP protocol by filtering through a 0.45 μm membrane filter (Pall, Supor-450, 0.45 μm, 90 mm, part # 60200, Lot # 43214) and stirring under vacuum for 5 minutes.
Dissolution Conditions #1.
Dissolution Conditions #2.
These Examples describe the dissolution of carbamazepine and carbamazepine solid dispersions by evaluating the samples described in Examples 91-99. SlFsp, pH 6.8 media preparation was described in the Materials and Methods section.
Samples were transferred into gelatin capsules (Capsugel, size OCS, Lot #624282) using a manual single capsule filler. The weight of each capsule and the amount of sample added are found in Table 17 (Capsule Description).

With O=C1NC(=O)C(c2ccccc2)(c2ccccc2)N1 [Example 78, Phenytoin] the “wt % Crystal (X-ray)” value ([1]; phenytoin/polymer solid dispersions and physical blends (Table 6)) was 100 wt %.
For NC(=O)N1c2ccccc2C=Cc2ccccc21 [Example 95, Carbamazepine], the “wt % Crystal (X-ray)” value ([1]; carbamazepine/CMCAB solid dispersions and physical blends (Table 8)) was 100 wt %, the “% Drug Released” value ([2]; 20 min) was 33.9384% and 38.8298% and the “Total Drug Released” value ([2]; 20 min) was 9.4293 mg and 10.5423 mg. The “% Drug Released” value ([2]; 30 min) was 44.1249% and 55.2412%, the “Total Drug Released” value ([2]; 30 min) was 12.2594 mg and 14.9980 mg and the “% Drug Released” value ([2]; 60 min) was 59.6056% and 68.7527%. The “Total Drug Released” value ([2]; 60 min) was 16.5605 mg and 18.6664 mg, the “% Drug Released” value ([2]; 120 min) was 68.4090% and 79.5856% and the “Total Drug Released” value ([2]; 120 min) was 19.0064 mg and 21.6075 mg. For the same molecule, the “% Drug Released” value ([2]; 180 min) was 67.5738% and 72.0943%, the “Total Drug Released” value ([2]; 180 min) was 18.7744 mg and 19.5736 mg and the “% Drug Released” value ([2]; 240 min) was 67.7652% and 72.6520%. For the same molecule, the “Total Drug Released” value ([2]; 240 min) was 18.8275 mg and 19.7250 mg, the “% Drug Released” value ([2]; 300 min) was 67.6548% and 72.9162% and the “Total Drug Released” value ([2]; 300 min) was 18.7969 mg and 19.7968 mg. For the same molecule, the “% Drug Released” value ([2]; 360 min) was 72.4305% and 71.9068%, the “Total Drug Released” value ([2]; 360 min) was 20.1237 mg and 19.5227 mg and the “% Drug Released” value ([2]; 450 min) was 67.4606% and 70.7122%. For the same molecule, the “Total Drug Released” value ([2]; 450 min) was 18.7429 mg and 19.1984 mg, the “Average % Released” value ([2]; SIFsp pH 6.8, 10 min) was 6.7739% and the “Average % Released” value ([2]; SIFsp pH 6.8, 20 min) was 36.3841%. The “Average % Released” value ([2]; SIFsp pH 6.8, 30 min) was 49.6830%, the “Average % Released” value ([2]; SIFsp pH 6.8, 60 min) was 64.1792% and the “Average % Released” value ([2]; SIFsp pH 6.8, 120 min) was 73.9973%. For the same molecule, the “Average % Released” value ([2]; SIFsp pH 6.8, 180 min) was 69.8341%, the “Average % Released” value ([2]; SIFsp pH 6.8, 240 min) was 70.2086% and the “Average % Released” value ([2]; SIFsp pH 6.8, 300 min) was 70.2855%. For the same molecule, the “Average % Released” value ([2]; SIFsp pH 6.8, 360 min) was 72.1686% and the “Average % Released” value ([2]; SIFsp pH 6.8, 450 min) was 69.0864%.
For COc1ccc(Cl)cc1C(=O)NCCc1ccc(S(=O)(=O)NC(=O)NC2CCCCC2)cc1 [Example 113, Glyburide], the “wt % Crystal (X-ray)” value ([1]; glyburide/CMCAB solid dispersions and physical blends (Table 10)) was 100 wt %.
